In patent US8916595B2, “Plant disease controlling composition and method for controlling plant disease” (Sumitomo Chemical Company, Limited, priority 2010, dated 2014):

Tested on: gray mold fungus (Botrytis cinerea)
Assay: Cucumber leaf disk preventive test against gray mold fungus (spray inoculation, onset area rate)
Type: in vivo
Settings: single compound, 15° C., four days
Experimental: True leaf of cucumber is punched out with cork borer to 13 mm in diameter to prepare a leaf disk. In 24 well microwell plate that is dispensed with 1 ml 0.8% water agar, the leaf disk is placed such that the upper side of the leaf is in an upward direction. Thereto is added 20 micro liter a testing solution prepared by mixing a dimethyl sulfoxide solution of the present compound (racemate) and a dimethyl sulfoxide solution of benthiavalicarb to a predetermined concentration to treat the leaf disk.
After confirming that the testing medical solution is dried, conidium of gray mold fungus (Botrytis cinerea) is suspended into potato dextrose broth (DIFCO) in a density of about 10^5 conidium/mL and is then subjected to a spray inoculation. After leaving to stand the leaf disk in a growth chamber set up at 15° C. for four days, an onset area on the leaf is measured and then calculated an onset area rate (hereinafter, referred to as an onset area rate of treated group).
The same operation is carried out with 20 micro liter water instead of 20 micro liter a testing medicine solution to calculate an onset area rate (hereinafter, referred to an onset area rate of non-treated group).
A preventive value is calculated from the above onset area rate of treated group and the onset area rate of non-treated group by the following equation: Preventive value(%)=100×(A−B)/A
A: an onset area rate of treated group
B: an onset area rate of non-treated group
The same operations as described in Test Example 1 are carried out with iprovalicarb instead of benthiavalicarb, so as to calculate a preventive value.
Also for comparison, the same operations as described in Test Example 1 are carried out with the exception that the testing medicine solution is substituted with a predetermined concentration of each dimethyl sulfoxide solution of the present compound (racemate) or iprovalicarb, so as to calculate respective preventive values.
For comparison, the same operations as described in Test Example 1 are carried out with the exception that the testing medicine solution is substituted with a predetermined concentration of a dimethyl sulfoxide solution of benthiavalicarb, so as to calculate a preventive value.

[1] = treatment concentration 0.5 ppm
[2] = treatment concentration 5.0 ppm

Compound | preventive value (%) [1] [%] | preventive value (%) [2] [%]
CC(C)[C@H](NC(=O)O)C(=O)N[C@H](C)c1nc2ccc(F)cc2s1 [benthiavalicarb] | 0 | 15
Cc1ccc(C(C)NC(=O)[C@@H](NC(=O)OC(C)C)C(C)C)cc1 (stereo partly shown) [iprovalicarb] | 0 | 15
